Measured values as given in patent US20070254894A1, “Novel small molecules with selective cytotoxicity against human microvascular endothelial cell proliferation” (priority 2006, published 2007).
Like-named read-outs stand apart in the source and are kept apart here.

What was measured:
[1] = tested on: HMVEC cells stimulated with VEGF 165; assay: VEGF driven HMVEC proliferation screen; format: cell-based
Description: (§1) HMVEC cells were plated on collagen-coated plates at 2500 cells/well for 24 hours. Various concentrations of test compounds were then added to duplicate plates. […] Anti-FGF antibody (final concentration of 5 μg/mL) was added to four control wells as a standard inhibitor. At the same time the compounds were added, a T-zero plate was generated (Alamar blue was added to a plate and read after three hours). The plates with the compounds were incubated for one hour at 37° C., 5% carbon dioxide. At this point, b-FGF was added (final concentration of 2.5 ng/mL). Tween-20 (10 μL) was added to four additional control wells to represent total death and the plates were returned to the carbon dioxide incubator for 6 days.
The assay was run identically using VEGF in place of b-FGF. The final concentration of VEGF 165, in this mode, was 10 ng/mL. The control inhibitor was anti-VEGF antibody (final concentration of […]). All other conditions were the same.

[2] = tested on: HMVEC cells stimulated with b-FGF; assay: b-FGF driven HMVEC proliferation screen; format: cell-based
Description: as §1

[3] = tested on: Primary Human Dermal Fibroblasts; assay: in vitro; conditions: read-out: D. Fibroblast LC50; 6 days, Alamar blue
Description: In parallel with the VEGF and FGF screens, a normal cell toxicity assay was run. Primary Human Dermal Fibroblasts (Clonetics) were plated at 5000 cells/well. After 24 hours various concentrations of test compounds, were added in duplicate plates and 10% Tween-20 was added to four control wells to represent total death. At the same time a T-zero plate was generated. The plates were returned to the carbon dioxide incubator and on day 6 Alamar blue was added and the plates read after 3 hours.
Using a T-zero plate allows the observation of compounds that cause the cells to become static as well as inhibit growth.

[4] = VEGF 165 10 ng/mL, 6 days, Alamar blue, read-out: VEGF LC50
[5] = b-FGF 2.5 ng/mL, 6 days, Alamar blue, read-out: b-FGF LC50
[6] = Homo sapiens, HMVEC, 144 h, VEGF 165 10 ng/mL, 6 days, Alamar blue, read-out: VEGF LC50
[7] = Homo sapiens, HMVEC, 144 h, b-FGF 2.5 ng/mL, 6 days, Alamar blue, read-out: b-FGF LC50

SMILES	CC50 [1] [nM]	CC50 [2] [nM]	CC50 [3] [µM]	CC50 [1, 4] [nM]	CC50 [2, 5] [nM]	CC50 [1, 6] [nM]	CC50 [2, 7] [nM]
O=C(Nc1cccc2cccnc12)c1ccccn1 [Compound 1]	65	61					
COc1cc(NC(=O)c2ccccn2)c2ncccc2c1 [Compound 2]	38	31	3.4				
COc1ccc(NC(=O)c2ccccn2)c2ncccc12 [Compound 3]			> 10	120	110		
O=C(Nc1cc(Cl)cc2cccnc12)c1ccccn1 [Compound 4]	120	110	> 10				
O=C(Nc1cc(C(F)(F)F)cc2cccnc12)c1ccccn1 [Compound 5]	160	120	> 10				
Cc1ccc2cccc(NC(=O)c3ccccn3)c2n1 [Compound 6]	3900	3200	> 10				
O=C(Nc1cccc2cc(Cl)cnc12)c1ccccn1 [Compound 7]	310	320	> 10				
CCOc1cc(NC(=O)c2ccccn2)c2ncccc2c1 [Compound 8]	96	81	> 10				
O=C(Nc1cc(-c2ccccc2)cc2cccnc12)c1ccccn1 [Compound 10]			> 10	260	380		
Cc1cc(NC(=O)c2ccccn2)c2ncccc2c1 [Compound 11]	73	68	> 10				
O=C(Nc1ccc(Oc2ccccc2)c2cccnc12)c1ccccn1 [Compound 12]			> 10	1000	1000		
O=C(Nc1cc(N2CCOCC2)cc2cccnc12)c1ccccn1 [Compound 13]	25	26	> 10				
Cc1ccc(NC(=O)c2ccccn2)c2ncccc12 [Compound 14]	130	170	> 10				
O=C(Nc1cc(Cl)c(Cl)c2cccnc12)c1ccccn1 [Compound 15]	210	220	> 10				
Cc1cc(NC(=O)c2ccccn2)c2ncccc2c1C [Compound 17]	160	130	> 10				
O=C(Nc1ccc(Cl)c2cccnc12)c1ccccn1 [Compound 18]	170	200	> 10				
CN1CCN(c2ccc(NC(=O)c3ccccn3)c3ncccc23)CC1 [Compound 19]			> 10	28	28		
O=C(Nc1cc(OCCN2CCOCC2)cc2cccnc12)c1ccccn1 [Compound 20]	30	31					
CN(C)CCN(C)c1ccc(NC(=O)c2ccccn2)c2ncccc12 [Compound 21]			> 10	3700	2400		
CCCOc1cccnc1C(=O)Nc1cccc2cccnc12 [Compound 23]	180	210	> 10				

SMILES	CC50 [1] [nM]	CC50 [2] [nM]	CC50 [3] [µM]	CC50 [1, 4] [nM]	CC50 [2, 5] [nM]	CC50 [1, 6] [nM]	CC50 [2, 7] [nM]
Cc1cccnc1C(=O)Nc1cccc2cccnc12 [Compound 24]	140	150	> 10				
Cc1cccc(C(=O)Nc2cccc3cccnc23)n1 [Compound 25]	2500	2300	> 10				
O=C(Nc1cccc2cccnc12)c1cccc(Br)n1 [Compound 26]	86	120	> 10				
O=C(Nc1cccc2cccnc12)c1cc(-c2ccccc2)ccn1 [Compound 27]			> 10	640	950		
O=C(Nc1cccc2cccnc12)c1cc2ccccc2cn1 [Compound 28]	480	610	> 10				
COc1ccnc(C(=O)Nc2cccc3cccnc23)c1 [Compound 29]	60	69	> 10				
O=C(Nc1cccc2cccnc12)c1cc(N2CCOCC2)ccn1 [Compound 30]	22	26	8				
O=C(Nc1cccc2cccnc12)c1ccc(-c2ccccc2)cn1 [Compound 33]			> 10	4700	6100		
CN1CCN(c2ccnc(C(=O)Nc3cccc4cccnc34)c2)CC1 [Compound 34, 4-(4-methylpiperazin-1-yl)pyridine-2-carboxylic acid quinolin-8-ylamide]			> 10	13	18		
O=C(Nc1cccc2cccnc12)c1cc(NCCN2CCOCC2)ccn1 [Compound 35]	120	160	> 10				
O=C(Nc1cccc2cccnc12)c1cc(N2CCN(Cc3ccccc3)CC2)ccn1 [Compound 36]			> 10	840	900		
O=C(Nc1cccc2cccnc12)c1cc(N2CCC(O)CC2)ccn1 [Compound 37]	290	310	> 10				
CN1CCCN(c2ccnc(C(=O)Nc3cccc4cccnc34)c2)CC1 [Compound 38]	26	25	> 10				
O=C(Nc1cccc2cccnc12)c1cc(N2CCN(CCO)CC2)ccn1 [Compound 39]	220	650	> 10				
CCN(CCN(C)C)c1ccnc(C(=O)Nc2cccc3cccnc23)c1 [Compound 40]	16	21	7.6				
CCN1CCN(c2ccnc(C(=O)Nc3cccc4cccnc34)c2)CC1 [Compound 41]	17	18	4.2				
O=C(Nc1cccc2cccnc12)c1cc(N2CCC(N3CCCC3)CC2)ccn1 [Compound 42]			3.6	42	33		
O=C(Nc1cccc2cccnc12)c1cc(N2CCCCC2)ccn1 [Compound 43]			> 10	400	220		
O=C(Nc1cccc2cccnc12)c1cc(N2CCSCC2)ccn1 [Compound 44]			> 10	180	250		
O=C(Nc1cccc2cccnc12)c1cc(SCc2ccccc2)ccn1 [Compound 45]			> 10	61	190		

SMILES	CC50 [1] [nM]	CC50 [2] [nM]	CC50 [3] [µM]	CC50 [1, 4] [nM]	CC50 [2, 5] [nM]	CC50 [1, 6] [nM]	CC50 [2, 7] [nM]
O=C(Nc1cccc2cccnc12)c1ncccc1O [Compound 46]	51	66	> 10				
O=C(Nc1cccc2cccnc12)c1ncccc1OCCN1CCOCC1 [Compound 48]	950	1600					
CN(C)CCCOc1cccnc1C(=O)Nc1cccc2cccnc12 [Compound 49]			> 10	1700	2500		
COc1cc(NC(=O)c2cc(N3CCN(C)CC3)ccn2)c2ncccc2c1 [Compound 54]			> 10	15	20		
CN1CCC[C@H]1C(=O)Nc1cccc2cccnc12 [Compound 58, (S)-1-methyl-pyrrolidine-2-carboxylic acid quinolin-8-ylamide]			> 10	190	170		
COc1cc(NS(=O)(=O)c2ccccn2)c2ncccc2c1 [Compound 72]	170	240	> 10				
O=S(=O)(Nc1cc(Cl)c(Cl)c2cccnc12)c1ccccn1 [Compound 73]	1100	1000	> 10				
Cc1ccc(NS(=O)(=O)c2ccccn2)c2ncccc12 [Compound 74]	120	110	> 10				
O=C(Nc1cccc2nccnc12)c1ccccn1 [Compound 77]			> 10	170	180		
O=C(Nc1ccccc1N1CCCC1)c1ccccn1 [Compound 79]	8000	6500	> 10				
CN(C)c1ccccc1NC(=O)c1ccccn1 [Compound 80]	770	830	> 10				
CCN(C)c1ccccc1NC(=O)c1ccccn1 [Compound 81]	620	500	> 10				
CCCN(C)c1ccccc1NC(=O)c1ccccn1 [Compound 82]	2000	1300	> 10				
CC(C)N(C)c1ccccc1NC(=O)c1ccccn1 [Compound 83]	9600	6500	> 10				
CCN(CC)c1ccccc1NC(=O)c1ccccn1 [Compound 84]	1600	1500	> 10				
CN(C)c1c(NC(=O)c2ccccn2)ccc(Cl)c1Cl [Compound 91]	3500	2400	> 10				
O=C(Nc1cc(OCCN2CCOCC2)cc2cccnc12)c1ccccn1 [Compound 99]						28	31
O=C(Nc1cccc2cccnc12)c1ncccc1OCCN1CCOCC1 [Compound 104]						810	1400
